Data as given in article PMC8880385 (Pharmaceuticals, 2022).
Where “and” joins values, the source holds several entries; their conditions need not be identical. Identical values can stand only once. Entries after “also recorded” stand apart in the source; their conditions may differ.

Tests used:
O. volvulus pre-adult L5 [1] = assay: O. volvulus pre-adult (Ov L5) motility assay; assay type: cell-based; details: Onchocerca volvulus, 504 h; on Day 21; read-out: O. volvulus L5 Inhibition of Motility IC50
Brugia pahangi = assay: Brugia pahangi/gerbil model of infection: worm and peritoneal mf counts at necropsy; assay type: in vivo
Method: Male Mongolian gerbils 50–60 g, 5–7 weeks in age (Meriones unguiculatus, Charles River Laboratories International, Inc., Wilmington, MA, USA) were injected intraperitoneally (IP) with 200 third-larval stage B. pahangi and treated a minimum of 3 months later when larvae developed into adult worms.
Animals were given IP doses of 1 mg/kg once a day for 5 days based on in vivo studies by Jones et al., 2009 [14] and gerbil PK analyses. Compounds are light sensitive and were shielded from light during formulation. Animals were necropsied 13 weeks post-first dose, and peritoneal cavities were washed with 100 mL of PBS to collect adult worms and mf that had been released from female worms. Adult worms were separated by sex, counted, and processed for subsequent analyses. Mf from the peritoneal cavities were quantified by mixing peritoneal wash 9:1 (v/v) with 0.04% methylene blue:water and counted using an inverted microscope.
Worm burden, peritoneal mf counts, overnight mf sheds and qPCR data were analyzed using a Kruskal–Wallis test followed by Dunn’s multiple comparison. To determine significant differences in embryograms, a two-way ANOVA was conducted with a Dunnett’s multiple comparisons test, and significance levels were determined based on comparisons with vehicle treated animals. All statistical analyses were determined using Prism 8 version 8.2.0(272).

O. ochengi mf = assay: O. ochengi microfilariae motility assay; assay type: cell-based, Onchocerca ochengi
Method: (§1) To assess the effects of the compounds on O. ochengi mf, the mf were harvested from infected cow skin and cultured (10–15 mf per well) in 100 µL media in 96-well plates with a confluent feeder layer of monkey kidney epithelial cells (MK2) as previously described. […] All compounds were also counter-screened with L. loa mf collected from infected individuals with approval from the University of Buea (IRB approval # 964-19). Mf were separated from blood cells using a Percoll gradient as previously described and set up for assays (10–15 mf per well).

[2] = system: Brugia pahangi adult females; assay: In vitro motility assay with adult female Brugia pahangi (Worminator)
Loa loa mf = assay: Loa loa microfilariae motility counter-screen; assay type: cell-based
Method: as §1

O. volvulus pre-adult L5 [3] = assay: O. volvulus pre-adult (Ov L5) motility assay; assay type: cell-based, Onchocerca volvulus; details: for inhibition at 1 µM: Onchocerca volvulus
Method: O. volvulus adult male and female worms, which can only be obtained from infected individuals, are not readily accessible for ex vivo studies. Moreover, since there is no small animal model that can maintain infections by O. volvulus, a recently developed in vitro system was used to evaluate the macrofilaricidal effects on pre-adult worms. All compounds except for 04 were tested in this O. volvulus pre-adult/L5 motility and viability assay.
Briefly, Ov L3 larvae were cultured to the pre-adult/L5 stage in vitro as described by Voronin et al., 2019 [45]. Once larvae reached the L5 stage (after at least 70 days in culture), 8–10 Ov L5 were moved to new transwell inserts in a 24-well plate containing 0.5 mL Ov L4-CMS media seeded with a 3 × 10^4/well Human Umbilical Vein Endothelial Cells (HUVEC) monolayer. Duplicate wells were treated with 1 and/or 10 µM of compound. Ov L5 were exposed to compounds for 14 days (exchanged 50% of media with fresh compound every two days) and then cultured with new media without compound, exchanging 50% of media every 2–3 days, up to day 36. Control Ov L5 were treated with 0.05% DMSO. Concentrations were chosen based on activity in the B. pahangi female motility assay. Motility was assessed visually and ranked on a 0–100% scale every 2–3 days over the course of the assay. At the end of the motility assay, Ov L5 viability was measured by 3-(4,5-dimethylthiazol-2-yl)-2,5-diphenyltetrazolium bromide (MTT) assay. Ov L5 were incubated with 0.1% MTT in PBS at 37 °C for 1 h then visually inspected for blue coloration indicating MTT reduction. Worms were considered dead if <50% of the worm was stained blue, and worms were considered alive if >50% of the worm was stained blue.

O. ochengi adult males = assay: O. ochengi adult male motility assay; assay type: cell-based; details: Onchocerca ochengi, 120 h; read-out: O. ochengi Adult Males Inhibition of Motility Day 5 IC50
Source text: As humans are the only hosts for O. volvulus which are unavailable for screening, drug discovery relies on the surrogate filarial parasites Brugia spp. and cattle Onchocerca spp. Prioritized compounds from the Brugia worm screens were further tested with female and male adult O. ochengi as well as O. ochengi and L. loa mf.
For these assays, O. ochengi adults were extracted from the subcutaneous nodules of infected cow skins purchased from the local slaughterhouse (Douala, Littoral Region, Cameroon) and incubated in 4 mL complete culture media comprised of RPMI-1640 (Sigma-Aldrich), 5% newborn calf serum, 200 units/mL penicillin, 200 μg/mL streptomycin and 2.5 μg/mL amphotericin B (Sigma-Aldrich) in 12-well plates overnight to validate sterility prior to the assays. Four to eight O. ochengi adult masses were treated individually the following day with a serial dilution of each compound, and controls were treated with 1% DMSO. While in culture, the male worms normally egress from the nodules into the surrounding media and thus can be monitored in parallel for motility. The O. ochengi adult masses were incubated at 37 °C with 5% CO2 for the duration of the assay. Male motility within each well was visually scored every day and over 5 days after compound addition, and female viability within the nodules was assessed by MTT after 7 days as previously described. The O. ochengi adult masses containing female worms were individually placed in wells of a 48-well plate with 0.5 mL of 0.5 mg/mL MTT in PBS and incubated at 37 °C for 30 min. Female viability was visually rated by the degree of formazan production (live worms have blue coloration) in the female worm within the treated nodule versus control worm masses. […] Prism 4.0 for Windows was used to calculate IC50s.

[4] = gerbil, 1 mg/kg IP once a day for 5 days, necropsy 13 weeks post-first dose, mean (SEM)
[5] = gerbil, 1 mg/kg IP once a day for 5 days, necropsy 13 weeks post-first dose, mean (SEM), 1 mg/kg

Cc1cc(/C=C/c2ccc3cc(N(C)C)ccc3[n+]2C)c(C)n1-c1ccccc1 [PVP, pyrvinium pamoate, reference compound]
IC50 (O. volvulus pre-adult L5 [1]): < 0.3 µM | Total female worms recovered from treated animals (Brugia pahangi; gerbil, 1 mg/kg IP): 1 | Reduction of peritoneal mf numbers compared to control group (Brugia pahangi; gerbil, 1 mg/kg IP once a day for 5 days, 13 weeks post-first dose): ~ 95% | Reduction of adult worm numbers (worm burden) compared to control group (Brugia pahangi; gerbil, 1 mg/kg IP once a day for 5 days, 13 weeks post-first dose, not statistically significant, 1 mg/kg): ~ 95% and 95% | Female worms per animal (Brugia pahangi; [4]): 0.1 (0.1) | Male worms per animal (Brugia pahangi; [4]): 0.7 (0.4) | Adult worms per animal (Brugia pahangi; [5]): 0.9 and 0.9 (0.5) | Mf per animal (peritoneal cavity) (Brugia pahangi; [5]): 10.4 × 10^3 and 10,429 | Total worms recovered from treated animals (Brugia pahangi; n = 7 animals, vehicle total 148 worms (n = 8)): 6 worms | O. ochengi Mf Inhibition of Motility Day 5 @ 10 µM (O. ochengi mf; 10 µM): completely inhibited | inhibition at 10 µM (O. ochengi mf; Onchocerca ochengi, 120 h, 10 µM, Day 5): 100% | IC50 (O. ochengi mf; Onchocerca ochengi, 120 h, Day 5): 0.3 µM | Brugia Adult Females Inhibition of Motility Day 3 @ 1 µM ([2]; 1 µM, Day 3, 1 µM): 82% | inhibition at 1 µM ([2]; Brugia pahangi, 72 h, read-out: Brugia Adult Females Inhibition of Motility Day 3 @ 1 µM, 1 µM, Day 3): > 70% | IC50 ([2]; Brugia pahangi, 72 h, read-out: Brugia Adult Females Inhibition of Motility Day 3 IC50): 0.0003 µM | Brugia Adult Females Inhibition of Motility Day 3 IC50 ([2]; Day 3): sub-micromolar range | Loa loa Mf Inhibition of Motility Day 5 @ 10 µM (Loa loa mf): completely inhibited | inhibition at 10 µM (Loa loa mf; Loa loa, 120 h, Day 5): 100% | Ov L5 fate during assay (in words) (O. volvulus pre-adult L5 [3]; 1 µM, 14 days drug then washout): dead by day 14; also recorded: did not recover | inhibition at 1 µM (O. volvulus pre-adult L5 [3]; 336 h, Day 14 @ 1 µM): 100% | inhibition at 1 µM (O. volvulus pre-adult L5 [3]; Day 36 @ 1 µM, 14 days drug then washout): > 90% | IC50 (O. ochengi adult males): 0.11 µM
